Source: patent US20070218460A1, “Method of Estimating Toxicity of Drug” (TAKEDA PHARMACEUTICAL COMPANY LIMITED, priority 2003, published 2007)
Like-named read-outs stand apart in the source and are kept apart here.

Assays:
[1] = system: HepG2 cells; test: Highest concentration at which cells were viable after 72 hr exposure; assay type: cell-based, human
[2] = system: HepG2 cells; test: Electron-microscopic examination of PLsis induction potential (myelin-like structure)
Source text: Using 30 kinds of the following commercially available drugs as test compounds, the level of PLsis induction potential was examined with the emergence of an intracellular myelin-like structure or a structure having a high electron density, which is an early image thereof, as an index by electronmicroscopic observation.
HepG2 cells (purchased from ATCC) were exposed to the test compound by a conventional method. HepG2 cells used were of the cell growth phase. The attached HepG2 cells were washed twice with. Dulbecco's phosphate buffered saline (calcium and magnesium salt free; PBS(−))(Dainippon Pharmaceutical Co., Ltd.) containing 0.05 w/v % EDTA, detached with a cell dissociation solution of 0.25 vol % trypsin-1 mmol/L EDTA (Gibco BRL) diluted 2-fold with PBS(−), centrifuged to remove the supernatant, and adjusted to a concentration of 2×10^5 cells/250 μL with a culture medium [Dulbecco's modified Eagle medium (DMEM)(Gibco BRL) supplemented with 50 U/mL penicillin (Gibco BRL)-[…] streptomycin (Gibco BRL) and 5 vol % FBS (Bio whittaker)]. DMSO alone or a culture medium containing the above-mentioned test compound in DMSO solution was dispensed to a well by 250 μL, the above-mentioned cell suspension (250 μL) was added, and cultured in a CO2 incubator (7100; Napco) under an atmosphere of 5% CO2—95% air at 37° C.
After culture for 72 hr, the culture medium was removed, and the cells were fixed with 1 w/v % glutaraldehyde solution. After fixing with 2 w/v % osmic acid for 2 hr by a conventional method and dehydrating with an alcohol series, the cells were embedded in a resin (Quetol 812). Ultrathin slices were prepared and, after electron staining, observed with an electron microscope (H-300; Hitachi) and photographed in 3 or more pictures per each sample (magnification ×5000). The processing after post-fixation was performed by Applied Medical Research.

[3] = system: depp; test: Real-time quantitative PCR of PLsis marker gene expression; assay type: cell-based, human; conditions: HepG2 cells, 24 hr exposure, relative value, control group = 1.0, GAPDH internal standard, n=3
Procedure: (§1) Using RNeasy Mini Kit (QIAGEN), total RNA was purified from the cells, and cDNA was synthesized in a 100 μL system using TaqMan Reverse Transcription Reagents (PE Applied Biosystems).
(§2) As the primer for glyceraldehyde-3-phosphoric acid dehydrogenase (GAPDH) and VIC labeled probe, those attached to TaqMan GAPDH Control Reagents (PE Applied Biosystems) were used.
(§3) Using 100 μL of the reaction mixture containing 5 μL of cDNA (1×TaqMan Universal PCR Master Mix (PE Applied Biosystems), 200 nM forward primer, 200 nM reverse primer and 200 nM TaqMan probe), 40 cycles of (1 cycle=95° C., 15 sec; 60° C., 1 min) PCR were performed. PCR and fluorescence detection were performed using ABI PRISM Sequence Detector 7000 (PE Applied Biosystems). As the internal standard, GAPDH was used to amend the measurement values. For the determination of significant difference, t-test was used (n=3).
(§4) For each test compound, the expression variation rate of 12 genes each relative to the control group was determined.

[4] = system: tagln; test: as above; assay type: cell-based, human; conditions: HepG2 cells, 24 hr exposure, relative value, control group = 1.0, GAPDH internal standard, n=3
Procedure: as §1, §2, §3, §4

[5] = system: asah1; test: as above; assay type: cell-based, human; conditions: HepG2 cells, 24 hr exposure, relative value, control group = 1.0, GAPDH internal standard, n=3
Procedure: as §1, §2, §3, §4

[6] = system: kiaa1001; test: as above; assay type: cell-based, human; conditions: HepG2 cells, 24 hr exposure, relative value, control group = 1.0, GAPDH internal standard, n=3
Procedure: as §1, §2, §3, §4

[7] = system: lss; test: as above; assay type: cell-based, human; conditions: HepG2 cells, 24 hr exposure, relative value, control group = 1.0, GAPDH internal standard, n=3
Procedure: as §1, §2, §3, §4

[8] = system: flj22362; test: as above; assay type: cell-based, human; conditions: HepG2 cells, 24 hr exposure, relative value, control group = 1.0, GAPDH internal standard, n=3
Procedure: as §1, §2, §3, §4

[9] = system: serpina3; test: as above; assay type: cell-based, human; conditions: HepG2 cells, 24 hr exposure, relative value, control group = 1.0, GAPDH internal standard, n=3
Procedure: as §1, §2, §3, §4

[10] = system: fabp1; test: as above; assay type: cell-based, human; conditions: HepG2 cells, 24 hr exposure, relative value, control group = 1.0, GAPDH internal standard, n=3
Procedure: as §1, §2, §3, §4

[11] = system: nr0b2; test: as above; assay type: cell-based, human; conditions: HepG2 cells, 24 hr exposure, relative value, control group = 1.0, GAPDH internal standard, n=3
Procedure: as §1, §2, §3, §4

[12] = system: slc2a3; test: as above; assay type: cell-based, human; conditions: HepG2 cells, 24 hr exposure, relative value, control group = 1.0, GAPDH internal standard, n=3
Procedure: as §1, §2, §3, §4

[13] = system: hpn; test: as above; assay type: cell-based, human; conditions: HepG2 cells, 24 hr exposure, relative value, control group = 1.0, GAPDH internal standard, n=3
Procedure: as §1, §2, §3, §4

[14] = system: mgc4171; test: as above; assay type: cell-based, human; conditions: HepG2 cells, 24 hr exposure, relative value, control group = 1.0, GAPDH internal standard, n=3
Procedure: as §1, §2, §3, §4

Row | SMILES | frequency of appearance of myelin-like structure [2] | expression variation rate depp [3] | expression variation rate tagln [4] | expression variation rate asah1 [5] | expression variation rate kiaa1001 [6] | expression variation rate lss [7] | expression variation rate flj22362 [8] | expression variation rate serpina3 [9] | expression variation rate fabp1 [10] | expression variation rate nr0b2 [11] | expression variation rate slc2a3 [12] | expression variation rate hpn [13] | expression variation rate mgc4171 [14] | frequency of appearance of myelin-like structure ([2]; HepG2 cells, 72 hr culture, electron microscopy, blind test n=4, addition concentration 8.3 or 25 μmol/L) | frequency of appearance of myelin-like structure ([2]; HepG2 cells, 72 hr, electromicroscopic test, class symbols in head of Table 2) | addition concentration (highest concentration at which cells survived after 72 hr of culture) [1]
1 | Clc1ccccc1CNCC1CCC(CNCc2ccccc2Cl)CC1 (stereo not drawn) [AY-9944] | ++ | 3.32 | 0.21 | 4.71 | 1.68 | 4.78 | 1.45 | 1.97 | 3.16 | 2.71 | 0.22 | 2.68 | 1.63 |  |  | 8.3 µmol/L
2 | CC(=O)Nc1ccc(O)cc1 [acetaminophen] |  | 0.94 | 0.93 | 1.18 | 1.13 | 0.91 | 1.02 | 0.99 | 1.11 | 0.69 | 1.50 | 1.10 | 0.75 |  |  | 25 µmol/L
3 | CCCCc1oc2ccccc2c1C(=O)c1cc(I)c(OCCN(CC)CC)c(I)c1 [amiodarone] | ++ | 1.12 | 0.56 | 1.69 | 1.56 | 1.82 | 1.07 | 1.17 | 2.01 | 1.35 | 0.35 | 2.15 | 1.32 |  |  | 8.3 µmol/L
4 | CN(C)CCC=C1c2ccccc2CCc2ccccc21 [amitriptyline] | +++ | 5.08 | 0.23 | 3.10 | 2.11 | 1.79 | 1.80 | 3.01 | 2.39 | 1.64 | 0.22 | 2.20 | 2.22 |  |  | 25 µmol/L
5 | CN(C)CCCN1c2ccccc2Sc2ccc(Cl)cc21 [chlorpromazine] | ++ | 2.95 | 0.65 | 1.29 | 1.90 | 1.99 | 1.70 | 1.94 | 2.56 | 1.20 | 0.43 | 1.70 | 1.74 |  |  | 8.3 µmol/L
6 | CC[C@H]1OC(=O)[C@H](C)[C@@H](O[C@H]2C[C@@](C)(OC)[C@@H](O)[C@H](C)O2)[C@H](C)[C@@H](O[C@@H]2O[C@H](C)C[C@H](N(C)C)[C@H]2O)[C@](C)(OC)C[C@@H](C)C(=O)[C@H](C)[C@@H](O)[C@]1(C)O [clarithromycin] | − | 0.93 | 0.86 | 1.55 | 1.48 | 0.65 | 1.00 | 1.39 | 0.91 | 0.78 | 0.86 | 0.96 | 1.18 |  |  | 25 µmol/L
7 | CN(C)CCCN1c2ccccc2CCc2ccccc21 [imipramine] |  | 3.36 | 0.15 | 4.52 | 2.11 | 2.69 | 1.80 | 2.12 | 2.45 | 3.41 | 0.15 | 2.32 | 1.81 |  |  | 25 µmol/L
8 | N=C(N)c1ccc(OCCCCCOc2ccc(C(=N)N)cc2)cc1 [pentamidine] |  | 2.88 | 0.68 | 0.93 | 1.82 | 0.52 | 2.49 | 2.12 | 0.15 | 1.83 | 0.50 | 2.50 | 0.73 |  |  | 8.3 µmol/L

Further lines, with some results ahead:

Row | frequency of appearance of myelin-like structure [2] | expression variation rate depp [3] | expression variation rate tagln [4] | expression variation rate asah1 [5] | expression variation rate kiaa1001 [6] | expression variation rate lss [7] | expression variation rate flj22362 [8] | expression variation rate serpina3 [9] | expression variation rate fabp1 [10] | expression variation rate nr0b2 [11] | expression variation rate slc2a3 [12] | expression variation rate hpn [13] | expression variation rate mgc4171 [14] | frequency of appearance of myelin-like structure ([2]; HepG2 cells, 72 hr culture, electron microscopy, blind test n=4, addition concentration 8.3 or 25 μmol/L) | frequency of appearance of myelin-like structure ([2]; HepG2 cells, 72 hr, electromicroscopic test, class symbols in head of Table 2) | SMILES | addition concentration (highest concentration at which cells survived after 72 hr of culture) [1]
9 | +++ | 3.24 | 0.30 | 3.23 | 2.47 | 2.98 | 2.96 | 2.23 | 2.62 | 2.46 | 0.20 | 2.97 | 2.43 |  |  | CN1CCN(C(c2ccccc2)c2ccc(Cl)cc2)CC1 (stereo not drawn) [chlorcyclizine] | 25 µmol/L
10 | ++ | 5.15 | 0.24 |  | 3.34 |  | 1.92 | 1.96 | 3.89 | 1.97 | 0.24 | 2.35 | 1.88 |  |  | CN1CCN(C2=Nc3cc(Cl)ccc3Nc3ccccc32)CC1 [clozapine] | 25 µmol/L
11 |  |  |  |  |  |  |  |  |  |  |  |  |  | mild | + | CCOC(=O)N1CCC(=C2c3ccc(Cl)cc3CCc3cccnc32)CC1 [loratadine] | 8.3 µmol/L
12 | − |  | 0.63 | 1.43 |  |  |  |  | 1.38 |  | 0.37 |  |  |  |  | C=C[C@H]1C[N@@]2CC[C@H]1C[C@@H]2[C@@H](O)c1ccnc2ccc(OC)cc12 [quinidine] | 25 µmol/L
